Data on 33 compounds can be found in a melting point compilation (Tetko et al.; mined from patent text by program, amines drawn as free bases though some values may be those of a salt).

Bounds are passed on as bounds.

As to `COCCOCN1C(C)=C(C(=O)O)[C@@H](c2cccc([N+](=O)[O-])c2)C(C(=O)OC)=C1C`, the melting point – broadly, the temperature, or range, at which the solid turns liquid – was determined as 124 °C.
Compound `COc1ccc2c(c1)COc1ccc(CC(=O)O)cc1C2=O` registered a melting point of 163 to 165 °C.
The compound `O=C1Nc2ccccc2C12CCCC(Br)C2` (stereo not drawn) gave a melting point of 196 to 199 °C.
For the compound `COc1cc2nc(N)nc(-c3ccccc3Cl)c2cc1OC`, the melting point was in the range of 247 to 280 °C.
Compound `COc1ccc(C2=NN(C3CCN(C(=O)CCl)CC3)C(=O)[C@@H]3CC=CC[C@H]23)cc1OC` displayed a melting point of 104 to 106 °C.
Turning to `Cc1c(C)c2c(c(C)c1N)CC(C)(CCc1ccc(F)cc1)O2` (stereo not drawn), the melting point lay within 62 to 63 °C.
As for `CN(C)Cc1ccc2cc(C(=O)Nc3ccc(-c4ccc(Cl)cc4)cc3)ccc2c1`, the melting point lay within 240 to 242 °C.
Compound `c1ccc(Cn2c(-c3ccc4c(c3)OCCO4)nc3cccnc32)cc1` returned a melting point of 156 to 158 °C.
In turn, `CCN(CC)CCCOc1ccc(-c2nnc(CSCCOc3ccccc3)o2)cc1` returned a melting point of 27 to 31 °C.
As for `COC1c2ccccc2C2C(=O)N(Cc3ccccc3)C(=O)C12` (stereo not drawn), the melting point lay in the range of 170 to 172 °C.
For the compound `CCCCNc1cc(CN)cc(S(N)(=O)=O)c1Oc1ccccc1`, the melting point fell in the range of 195 to 198 °C.
For `Cc1ccccc1-c1nn(C(C)(C)C(=O)N(C)C)cc1C`, the melting point was 145 to 147 °C.
`COc1cc([C@@H]2c3cc4c(cc3C=C[C@H]2C(=O)O)OCO4)cc(OC)c1OC` (relative stereo) returned a melting point of 177 to 180 °C.
`COc1ccc(C=Cc2ncn(CC(O)(Cn3cncn3)c3ccc(F)cc3F)n2)cc1` (stereo not drawn) showed a melting point of 150 to 152 °C.
For `CCCn1c(COCC)nc2c(N)nc3ccc(OCCCN4CCCC4=O)cc3c21` the value was 188 to 190 °C.
`Cc1ccc(Cc2cnc(Cl)nc2OC(C)C)cn1`: the melting point lay within 38 to 42 °C.
`COc1cc(OC)nc(Oc2cccc3c2C(=O)OC3SC#N)n1` (stereo not drawn) came in with a melting point of 161 to 163 °C.
Regarding `C=CCOc1cccc(-c2c(O)c3ccc(Cl)cc3[nH]c2=O)c1`, the melting point is more than 300 °C.
For `CC(C)(C)[N+]([O-])=Cc1cc(Cl)cc(Cl)c1O` the value was 103 °C; for `O=C(Nc1c(C(O)(C(F)(F)F)C(F)(F)F)ccc2ccccc12)c1cccnc1`, 214 to 215 °C.
For the compound `OC1CCCc2cnc3cc(OCc4ccccc4)ccc3c21` (stereo not drawn), the melting point fell in the range of 155 to 157 °C.
For the compound `Cc1ccc(-c2ncc3c(n2)CCCC3)nc1Br`, the melting point was in the range of 125 to 128 °C.
Compound `O=C1Nc2ccc(Cl)cc2C(c2ccccc2)=N[C@@H]1Cc1ccccc1` showed a melting point of 154 to 157 °C.
Compound `NC(CSc1nc(NCc2ccc3c(c2)OCO3)cc(-c2ccccc2)n1)=NO` came in with a melting point of 160 to 163 °C.
To `CCCCOCCOc1ccc(-c2ccc3c(c2)C=C(C(=O)Nc2ccc4c(c2)nc(S(=O)Cc2cncn2CCC)n4C)CCN3CC(C)C)cc1` (stereo not drawn) belongs 150 to 151 °C.
With `Cc1ccccc1NC(=O)CN1CC2CCC(C1)N2S(=O)(=O)c1cccc(C#N)c1`, the melting point lay in the range of 166 to 168 °C.
Compound `CCOCCn1c(CN2CCN(CC(O)COc3ccccc3)CC2)nc2cccnc21` (stereo not drawn) gave a melting point of 102 °C.
As for `COc1cc2c(cc1N1CCNCC1)N(C(=O)c1ccc(-c3ccc(-c4noc(C)n4)cc3C)cc1)CC2`, the melting point is 153 to 155 °C.
For `Cc1ccc(S)c(C(=O)O)c1` the value was 56 to 58 °C; for `Cc1c(F)cccc1Cc1c(-c2ccccc2)c2ccccn2c1C(=O)N1CCN(C(=O)OC(C)(C)C)CC1`, 263 °C; for `Cc1cc(C)c(C)c(COc2cccc(-c3coc(C(=O)NNC(=O)c4ccc(O)c(C#N)c4)c3-c3ccccc3)c2)c1C`, 242 to 247 °C.
For `O[C@H](CCl)COc1ccc(OCc2ccccc2)cc1`, the melting point is 78 to 80 °C.
`COc1cc(Nc2c(C#N)cnc3cc(NCCCC4CCN(C)CC4)c(OC)cc23)c(Cl)cc1Cl` had a melting point of 122 to 124 °C.
